US20240009174A1, “METHODS FOR DISRUPTING MITOCHONDRIAL UNFOLDED PROTEIN RESPONSE” (Health Research, Inc., priority 2020, published 2024)

Legend:
[1] = test system: PC-3 (AR negative) xenografts; experiment: PC-3 xenograft in SCID mice; format: in vivo; settings: 60 mg/kg bw
Procedure: (§1) FIG. 8. Pharmacological inhibition of HSP60-ClpP inhibit oncogenic signaling and PCa tumor growth in vivo. (A) LNCaP, PC-3 and 22RV1 cells were treated with DCEM1 and analyzed for c-Myc and EZH2 protein expression after 24 hours of treatment. (B) LNCaP, 22RV1 and VCaP cells were treated with DCEM1 and analyzed for AR and PSA protein expression after 24 hours of treatment. (C-D) 22RV1 cells (1×10^6 cells) were mixed with matrigel (50:50 v/v) and injected into each flank of SCID mice and treated with DCEM1 (60 mg/kg bw) through IP route twice weekly and tumors were harvested, photographed (C) and weighed (D) at 30 days. (E) DEVDase activity were analyzed in 22RV1 xenograft tumor tissue following DCEM1 treatment and represented as fold change compared to control. (F) 22RV1 xenograft tissue were sectioned and expression of ki67, c-Myc and EZH2 proteins were analyzed by Immunohistochemistry as described in material and methods. (G-H) PC-3 cells (1×10^6 cells) were mixed with matrigel (50:50 v/v) and injected into each flank of SCID mice and treated with DCEM1 (60 mg/kg bw) through IP route twice weekly and tumors were harvested, photographed (G) and weighed (H) at 35 days. (I) DEVDase activity were analyzed in PC-3 xenograft tumor tissue following DCEM1 treatment and represented as fold change compared to control. (J) PC-3 xenograft tumor tissue were fixed and sections were used for in situ PLA to analyze HSP60-ClpP interaction in these tissue samples. […] All animals were sacrificed at 16 weeks of age and prostate tissue and tumors were harvested, whole cell lysate were prepared and analyzed for HSP60 and ClpP expression (N); c-Myc and EZH2 expression (0) and SYP and CK 8/18 expression (P) by immunoblotting. […]
(§2) Ablation of HSP60-ClpP interaction by DCEM1 downregulates c-Myc, EZH2 and AR as well as inhibits tumor growth in vivo. […] The effect of DCEM1 on 22RV1 (AR positive) and PC-3 (AR negative) xenografts growth in SCID mice was analyzed. […]

[2] = test system: TKO prostate tumors; experiment: Spontaneous prostate tumor in PTEN:Rb:p53 knockout (TKO) animals; format: in vivo, mice
Procedure: as §1, with “samples. (K) PBCre4:PTEN F/F: Rb F/F: p53 F/F (TKO) animals were treated with either vehicle (Normal saline: DMSO: Kolliphor HS15; 70:5:200 v/v) or DCEM1 (60 mg/kg bw in vehicle) twice weekly from 10 weeks of age. All animals were sacrificed at 16 weeks of age and whole genitourinary tract was harvested and weighed. (L) PBCre4:PTEN F/F: Rb F/F: p53 F/F (TKO) animals were treated with either vehicle (Normal saline:DMSO:Kolliphor HS15; 70:5:200 v/v) or DCEM1 (60 mg/kg bw in vehicle) twice weekly from 10 weeks of age. All animals were sacrificed at 16 weeks of age and imaged by MRI. (M) PBCre4:PTEN F/F: Rb F/F: p53 F/F (TKO) animals were treated with either vehicle (Normal saline:DMSO:Kolliphor HS15; 70:5:200 v/v) or DCEM1 (60 mg/kg bw in vehicle) twice weekly from 10 weeks of age.” for “samples.”
as §2

[3] = 60 mg/kg bw twice weekly, 10 to 16 weeks of age, immunoblotting

CCOc1cc(CNCc2nc3ccccc3[nH]2)ccc1OCc1cccs1 [DCEM1]
HSP60-ClpP interaction by in situ PLA in PC-3 xenograft tumors [1]: inhibited HSP60-ClpP interaction | caspase-3 (DEVDase) activity in PC-3 xenograft tumors ([1]; IP, twice weekly): induced | tumor volume and weight, PC-3 xenografts ([1]; IP, twice weekly, 35 days): effectively inhibited | prostate tumor growth in TKO mice (GU weight, tumor volume by MRI) ([2]; 60 mg/kg bw twice weekly from 10 weeks to 16 weeks of age): significantly inhibited prostate tumor growth | HSP60 and ClpP expression in TKO prostatic tissue [2, 3]: downregulated HSP60 and ClpP expression | SYP and CK 8/18 expression in TKO tumor tissues [2, 3]: downregulated SYP and up regulated CK 8/18 expression | c-Myc and EZH2 in TKO prostatic tissue [2, 3]: depletion of c-Myc and EZH2
